What all share (format): cell-based
The subject of one test is FaDu CSC. Briefly: Cancer stem cells, Cell Titer-Glo 72 hours (Test Example 3). The conditions noted are these: Homo sapiens, FaDu, 72 h. For orientation: Cellular ATP, detected with luciferase, serves as a proxy for viable cell number.
For another test, the system named is ACHN. Briefly: Bulk cancer cells, Cell Titer-Glo 72 hours (Test Example 2). The conditions noted are these: Homo sapiens, ACHN, 72 h. How it is done:
(§1) Tubes of 3× drug (60 uM in 500 uL complete media) were prepared from 5 mM stock solutions in DMSO. […] To treat cells, 50 uL of drug from the dilution plate was removed and added to the cell plates. […] Cells were harvested 72 hours after drug addition using Cell Titer-Glo (Promega) and luminescence measured on a plate reader.

In a further test the test system is FaDu. The test is described as above. Particulars: Homo sapiens. The protocol:
as §1

In another test the test system is A549. The description is as above. The conditions noted are these: Homo sapiens. How it is done:
as §1

pIC50: −log10 of the molar value.

Take `Cc1[nH]c(/C=C2\C(=O)Nc3ccc(-c4cnn(-c5ccccc5)c4C)cc32)c(C)c1C(=O)N1CCN(C)CC1` [Example 5]: the pIC50 (in general, the IC50 on a negative log10 scale, so that one unit is a factor of ten) with FaDu CSC is 4.83. On to `Cc1[nH]c(/C=C2\C(=O)Nc3ccc(-c4ncc(-c5ccccc5)o4)cc32)c(C)c1C(=O)N1CCN(C)CC1` [Example 20], for which the pIC50 with FaDu CSC is 5.62.

On to `COc1ccc(-c2ccc3c(c2)/C(=C/c2[nH]c(C)cc2C)C(=O)N3)c(C)c1` [Example 263], for which the pIC50 in the test with ACHN was 4.61; with FaDu, 4.70. As for `Cc1cc(C)c(/C=C2\C(=O)Nc3ccc(-c4csc(-c5ccccc5)n4)cc32)[nH]1` [Example 138], the pIC50 in the test on ACHN is 5.27; in the test on FaDu it was 5.10; with FaDu CSC, 5.19.

In turn, `CCN(CC)CCNC(=O)c1c(C)[nH]c(/C=C2\C(=O)Nc3ccc(-c4oc(-c5ccccc5)nc4C)cc32)c1C` [Example 34] had a pIC50 with FaDu CSC of 4.74.

`CCN(CC)CCNC(=O)c1c(C)[nH]c(/C=C2\C(=O)Nc3ccc(-c4nnc(-c5ccccc5)o4)cc32)c1C` [Example 53]: the pIC50 is 5.08 in the test with FaDu and 4.67 in the test on FaDu CSC. The compound `Cc1[nH]c(/C=C2\C(=O)Nc3ccc(-c4ccnn4-c4ccc(C#N)cc4)cc32)c(C)c1C(=O)N1CCN(C)CC1` [Example 24] showed a pIC50 in the test on FaDu CSC of 4.32. Same read-out and setting: in the case of `Cc1cc(C)c(/C=C2\C(=O)Nc3cc(-c4cccc(C#N)c4C)ccc32)[nH]1` [Example 245] it was 4.41; in that of `O=C1Nc2ccc(-c3csc(-c4ccccc4)n3)cc2/C1=C/c1ccc(C(=O)NCCN2CCOCC2)c(=O)[nH]1` [Example 123], 4.47.

In the test with FaDu, `COc1cccnc1-c1ccc2c(c1)/C(=C/c1[nH]c(C)cc1C)C(=O)N2` [Example 222] had a pIC50 of 4.48. As for `CCN(CC)CCNC(=O)c1c(C)[nH]c(/C=C2\C(=O)Nc3ccc(-c4nc(-c5ccccc5)n[nH]4)cc32)c1C` [Example 50], the pIC50 in the test with FaDu is 5.21; in the test on FaDu CSC, 5.55. `CCN(CC)CCNC(=O)c1c(C)[nH]c(/C=C2\C(=O)Nc3ccc(-c4cnc(-c5ccccc5)s4)cc32)c1C` [Example 54] gave a negative-log IC50 (pIC50) with FaDu of 4.63. Same read-out and setting: for `O=C1Nc2ccc(-c3csc(-c4ccncc4)n3)cc2/C1=C/c1ccc(N2CCOCC2)cc1` [Example 173] the value was 4.76. `CCN(CC)CCNC(=O)c1c(C)[nH]c(/C=C2\C(=O)Nc3ncc(-c4csc(-c5ccccc5)n4)cc32)c1C` [Example 116]: the pIC50 in the test on FaDu CSC is 5.80. In the case of `CCN(CC)CCNC(=O)c1c(C)[nH]c(/C=C2\C(=O)Nc3ccc(-c4ccnn4-c4ccc(C#N)cc4)cc32)c1C` [Example 25], the results for the pIC50 in the test with FaDu and with FaDu CSC were 4.76 and 5.30, respectively. Regarding `Cc1[nH]c(/C=C2\C(=O)Nc3ccc(-c4csc(C5CCNCC5)n4)cc32)c(C)c1C(=O)O` [Example 142], the pIC50 in the test with FaDu CSC was 5.25. The compound `Cc1cc(C)c(/C=C2\C(=O)Nc3ccc(-c4ccc5ccccc5n4)cc32)[nH]1` [Example 214] had a pIC50 in the test with ACHN of 5.13. Consider `CCN(CC)CCNC(=O)c1c(C)[nH]c(/C=C2\C(=O)Nc3ccc(C4CCN(c5ncccn5)CC4)cc32)c1C` [Example 43], for which the results for the pIC50 in the test with FaDu and in the test on FaDu CSC were 5.19 and 4.72, respectively. `CN1CCN(C(=O)c2ccc(/C=C3\C(=O)Nc4ccc(-c5csc(-c6ccccc6)n5)cc43)[nH]c2=O)CC1` [Example 122]: the pIC50 in the test with FaDu CSC was 4.64.

For the compound `Cc1[nH]c(/C=C2\C(=O)Nc3ccc(-c4cnn(-c5ccccc5)c4C)cc32)c(C)c1C(=O)NCCN1CCCC1` [Example 28], the values for the pIC50 in the test on FaDu and in the test on FaDu CSC were 5.24 and 5.88, respectively. Take `Cc1cc(C)c(/C=C2\C(=O)Nc3ccc(-c4ccc(C(=O)c5ccccc5)cc4)cc32)[nH]1` [Example 260]: the negative logarithm of the IC50 (pIC50) is 4.66 in the test on ACHN and 4.65 with FaDu. `Cc1[nH]c(/C=C2\C(=O)Nc3ccc(-c4cnn(-c5ccccc5)c4C)cc32)c(C)c1C(=O)N1CCOCC1` [Example 13]: the pIC50 in the test with FaDu was 5.17; in the test on FaDu CSC it was 4.43. For `Cc1[nH]c(/C=C2\C(=O)Nc3ccc(-c4cnc(-c5ccccc5)[nH]4)cc32)c(C)c1C(=O)N1CCN(C)CC1` [Example 44] the same measures were 5.26 and 4.88. As for `Cc1cc(C)c(/C=C2\C(=O)Nc3cc(-c4ccc5ccccc5n4)ccc32)[nH]1` [Example 248], the pIC50 in the test with FaDu is 4.85.

Regarding `Cc1cc(C)c(/C=C2\C(=O)Nc3cc(-c4cnc5ccnn5c4)ccc32)[nH]1` [Example 243], the negative logarithm of the IC50 (pIC50) in the test on FaDu CSC is 4.83.

As for `Cc1[nH]c(/C=C2\C(=O)Nc3ccc(-c4ccnn4-c4ccccc4)cc32)c(C)c1C(=O)N1CCN(C)CC1` [Example 23], the pIC50 was 5.34 in the test with FaDu and 4.94 with FaDu CSC. `Cc1ccc(-c2nc(-c3ccc4c(c3)/C(=C/c3[nH]c(C)c(C(=O)N5CCOCC5)c3C)C(=O)N4)cs2)cc1` [Example 105] gave a pIC50 with FaDu of 5.52. The same measure, in the same setting: for `Cc1[nH]c(/C=C2\C(=O)Nc3ncc(-c4csc(-c5ccccc5)n4)cc32)c(C)c1C(=O)N1CCN(C)CC1` [Example 117] the value was 4.41.

As for `CC(=O)N1CCC(N2CCC(c3ccc4c(c3)/C(=C/c3[nH]c(C)c(C(=O)N5CCN(C)CC5)c3C)C(=O)N4)CC2)CC1` [Example 46], the pIC50 in the test on FaDu is 4.63; in the test on FaDu CSC, 4.81. Consider `Cc1[nH]c(/C=C2\C(=O)Nc3ccc(-c4cnn(-c5ccccn5)c4)cc32)c(C)c1C(=O)N1CCOCC1` [Example 30], for which the pIC50 with FaDu CSC is 5.05. As for `O=C1Nc2ccc(-c3csc(-c4ccccc4)n3)cc2/C1=C/c1[nH]c(C(=O)O)c2c1CCCC2` [Example 163], the results for the negative logarithm of the IC50 (pIC50) in the test on ACHN and in the test on FaDu CSC were 4.60 and 5.35, respectively. `Cc1cc(C)c(/C=C2\C(=O)Nc3cc(-c4ccc(-c5ccccc5)nc4)ccc32)[nH]1` [Example 241] had a pIC50 in the test with FaDu CSC of 4.74. Compound `CCN(CC)CCNC(=O)c1c(C)[nH]c(/C=C2\C(=O)Nc3cc(-c4ccc5cn[nH]c(=O)c5c4)ccc32)c1C` [Example 252] gave a pIC50 in the test on FaDu of 4.62. With `Cc1[nH]c(/C=C2\C(=O)Nc3ccc(-c4ccc(-c5ccccc5)s4)cc32)c(C)c1C(=O)NCCN1CCCC1` [Example 14], the values for the pIC50 in the test with FaDu and with FaDu CSC were 5.35 and 5.79, respectively.

The compound `Cc1[nH]c(/C=C2\C(=O)Nc3ccc(-c4csc(-c5ccncc5)n4)cc32)c(C)c1CCC(=O)O` [Example 154] had a pIC50 with ACHN of 4.84. In the case of `CCN(CC)CCNC(=O)c1c(C)[nH]c(/C=C2\C(=O)Nc3ccc(-n4cc(-c5ccccc5)nn4)cc32)c1C` [Example 49], the negative logarithm of the IC50 (pIC50) in the test on ACHN is 5.15; with FaDu, 5.18; with FaDu CSC it was 5.52.

In the case of `CCN(CC)CCNC(=O)c1c(C)[nH]c(/C=C2\C(=O)Nc3ccc(-c4cnc(-c5ccccc5)o4)cc32)c1C` [Example 17], the values for the negative-log IC50 (pIC50) with ACHN, in the test with FaDu and with FaDu CSC were 4.91, 5.01 and 4.38, respectively. For `CCOC(=O)CCc1ccc(-c2nc(-c3ccc4c(c3)/C(=C/c3[nH]c(C)c(C(=O)NCCN(CC)CC)c3C)C(=O)N4)cs2)cc1` [Example 136], the pIC50 in the test with FaDu CSC was 5.60.

In the case of `CCN(CC)CCNC(=O)c1c(C)[nH]c(/C=C2\C(=O)Nc3cnc(-c4csc(-c5ccccc5)n4)cc32)c1C` [Example 120], the pIC50 was 4.95 with FaDu and 5.32 with FaDu CSC. For `Cc1[nH]c(/C=C2\C(=O)Nc3ccc(-c4cnc(-c5ccccc5)o4)cc32)c(C)c1C(=O)N1CCN(C)CC1` [Example 18] the same measures were 4.92 and 5.03. As for `Cc1cc(C)c(/C=C2\C(=O)Nc3cc(-c4cnc5ccccn45)ccc32)[nH]1` [Example 247], the pIC50 was 4.69 with ACHN and 4.71 in the test with FaDu.

With `O=C1Nc2ccc(-c3csc(-c4ccccc4)n3)cc2/C1=C/c1ccc(N2CCOCC2)cc1` [Example 172], the pIC50 in the test with FaDu is 4.45. Take `CCN(CC)CCNC(=O)c1[nH]c(/C=C2\C(=O)Nc3ccc(-c4csc(-c5ccccc5)n4)cc32)c2c1CCCC2` [Example 166]: in the test with ACHN, the pIC50 is 5.00. `CCOC(=O)c1c(C)[nH]c(/C=C2\C(=O)Nc3ccc(-c4csc(-c5ccccc5)n4)cc32)c1C` [Example 108] showed a pIC50 with FaDu CSC of 4.70.

`CCN(CC)CCNC(=O)c1c(C)[nH]c(/C=C2\C(=O)Nc3ccc(-c4csc(-c5ccccn5)n4)cc32)c1C` [Example 124] had a pIC50 in the test on FaDu of 4.33. `O=C1Nc2ccc(-c3csc(-c4ccncc4)n3)cc2/C1=C/c1cc2ccccc2[nH]1` [Example 158] had a pIC50 in the test on FaDu CSC of 5.51. `CCN(CC)CCNC(=O)c1c(C)[nH]c(/C=C2\C(=O)Nc3ccc(-c4cnc(-c5ccccc5)[nH]4)cc32)c1C` [Example 41]: the pIC50 in the test on ACHN is 4.69; with FaDu it was 5.27.

Compound `COc1ccc(-c2ccc3c(c2)/C(=C/c2[nH]c(C)cc2C)C(=O)N3)nc1` [Example 227] gave a pIC50 with A549 of 7.15. Compound `CCOC(=O)CCc1cccc(-c2nc(-c3ccc4c(c3)/C(=C/c3[nH]c(C)c(C(=O)NCCN(CC)CC)c3C)C(=O)N4)cs2)c1` [Example 134] had a pIC50 with FaDu CSC of 5.63. `CCN(CC)CCNC(=O)c1c(C)[nH]c(/C=C2\C(=O)Nc3ccc(-c4cs/c(=N\c5ccccc5)n4C)cc32)c1C` [Example 132]: the pIC50 with FaDu was 5.27; with FaDu CSC, 5.66. For `CCN(CC)CCNC(=O)c1c(C)[nH]c(/C=C2\C(=O)Nc3ccc(-c4csc(-c5cccc(Br)c5)n4)cc32)c1C` [Example 127] the same measures were 4.61 and 5.11. For `CCN(CC)CCNC(=O)c1c(C)[nH]c(/C=C2\C(=O)Nc3ccc(-c4csc(-c5ccc(Br)cc5)n4)cc32)c1C` [Example 125] the same measures were 5.43 and 5.88. Consider `CCN(CC)CCNC(=O)c1c(C)[nH]c(/C=C2\C(=O)Nc3ccc(C4CCN(C5CCOCC5)CC4)cc32)c1C` [Example 12], for which, in the test with FaDu, the pIC50 is 4.62. Still for that read-out and setting: in the case of `O=C1Nc2ccc(-c3csc(-c4ccccc4)n3)cc2/C1=C/c1cc2ccccc2[nH]1` [Example 159] it was 4.31.

The values above are taken from US20190241569A1, “3-(ARYL OR HETEROARYL) METHYLENEINDOLIN-2-ONE DERIVATIVES AS INHIBITORS OF CANCER STEM CELL PATHWAY KINASES FOR THE TREATMENT OF CANCER” (Boston Biomedical, Inc., priority 2013, published 2019).
